Source: US10294202B2, “Pyrrolidinones as herbicides” (FMC Corporation, priority 2013, dated 2019)

Assays:
foxtail, green = test: Test D pre-/postemergence herbicide test; format: in vivo, Setaria viridis; conditions: for Plant response rating: Foxtail, Green, scale 0 to 100; for Plant response rating, Foxtail, Green: scale 0 to 100 (0 no effect, 100 complete control)
From the text: Seeds of plant species selected from bluegrass (annual bluegrass, Poa annua), blackgrass (Alopecurus myosuroides), canarygrass (littleseed canarygrass, Phalaris minor), chickweed (common chickweed, Stellaria media), galium (catchweed bedstraw, Galium aparine), bromegrass, downy (downy bromegrass, Bromus tectorum), field poppy (Papaver rhoeas), field violet (Viola arvensis), foxtail, green (green foxtail, Setaria viridis), deadnettle (henbit deadnettle, Lamium amplexicaule), ryegrass, Italian (Italian ryegrass, Lolium multiflorum), kochia (Kochia scoparia), lambsquarters (Chenopodium album), oilseed rape (Brassica napus), pigweed (Amaranthus retroflexus), chamomile (scentless chamomile, Matricaria inodora), Russian thistle (Salsola kali), speedwell (bird's-eye speedwell, Veronica persica), barley, spring (spring barley, Hordeum vulgare), wheat, spring (spring wheat, Triticum aestivum), buckwheat, wild (wild buckwheat, Polygonum convolvulus), mustard, wild (wild mustard, Sinapis arvensis), oat, wild (wild oat, Avena fatua), radish, wild (wild radish, Raphanus raphanistrum), […]), barley, winter (winter barley, Hordeum vulgare), and wheat, winter (winter wheat, Triticum aestivum) were planted into a silt loam soil and treated preemergence with test chemicals formulated in a non-phytotoxic solvent mixture which included a surfactant. At the same time, these species were planted in pots containing Redi-Earth® planting medium (Scotts Company, 14111 Scottslawn Road, Marysville, Ohio 43041) comprising spaghnum peat moss, vermiculite, wetting agent and starter nutrients and treated with postemergence applications of the test chemicals formulated in the same manner. Plants ranged in height from 2 to 18 cm (1- to 4-leaf stage). Treated plants and controls were maintained in a controlled growth environment for 7 to 21 days after which time all species were compared to controls and visually evaluated. Plant response ratings, summarized in Table D, are based on a scale of 0 to 100 where 0 is no effect and 100 is complete control. A dash (-) response means no test result.

sunflower = test: Test C pre-/postemergence herbicide test; format: in vivo, Helianthus annuus; conditions: Preemergence
From the text: Seeds of plant species selected from blackgrass (Alopecurus myosuroides), ryegrass, Italian (Italian ryegrass, Lolium multiflorum), wheat (winter wheat, Triticum aestivum), galium (catchweed bedstraw, Galium aparine), corn (Zea mays), crabgrass, large (large crabgrass, Digitaria sanguinalis), foxtail, giant (giant foxtail, Setaria faberii), johnsongrass (Sorghum halepense), lambsquarters (Chenopodium album), morningglory (Ipomoea coccinea), nutsedge, yellow (yellow nutsedge, Cyperus esculentus), pigweed (Amaranthus retroflexus), ragweed (common ragweed, Ambrosia elatior), soybean (Glycine max), barnyardgrass (Echinochloa crus-galli), oilseed rape (Brassica napus), waterhemp (common waterhemp, Amaranthus rudis), kochia (Kochia scoparia), oat, wild (wild oat, Avena fatua), surinam grass (Brachiaria decumbens), foxtail, green (green foxtail, Setaria viridis), goosegrass (Eleusine indica), bromegrass, downy (downy bromegrass, Bromus tectorum), nightshade (eastern black nightshade, Solanum ptycanthum), cocklebur (common cocklebur, Xanthium strumarium), cupgrass, woolly (woolly cupgrass, Eriochloa villosa), bermudagrass (Cynodon dactylon), sunflower, (common oilseed sunflower, Helianthus annuus), Russian thistle (Salsola kali) and velvetleaf (Abutilon theophrasti) were planted into a blend of loam soil and sand and treated preemergence with test chemicals formulated in a non-phytotoxic solvent mixture which included a surfactant. At the same time, plants selected from these crop and weed species and also barley (winter barley, Hordeum vulgare), […]), chickweed (common chickweed, Stellaria media), deadnettle (henbit deadnettle, Lamium amplexicaule), and canarygrass (littleseed canarygrass, Phalaris minor) were planted in pots containing Redi-Earth® planting medium (Scotts Company, 14111 Scottslawn Road, Marysville, Ohio 43041) comprising spaghnum peat moss, vermiculite, wetting agent and starter nutrients and treated with postemergence applications of test chemicals formulated in the same manner. Plants ranged in height from 2 to 18 cm (1- to 4-leaf stage) for postemergence treatments. Treated plants and controls were maintained in a greenhouse for 13 to 15 days, after which time all species were compared to controls and visually evaluated. Plant response ratings, summarized in Table C, are based on a scale of 0 to 100 where 0 is no effect and 100 is complete control. A dash (-) response means no test result.

watergrass, late = test: Test F flood (paddy) test; format: in vivo, Echinochloa oryzicola; conditions: 21 d, scale 0-100
From the text: Three plastic pots (ca. 16-cm diameter) per rate were partially filled with sterilized Tama silt loam soil comprising a 35:50:15 ratio of sand, silt and clay and 2.6% organic matter. Separate plantings for each of the three pots were as follows. Seeds from the U.S. of monochoria (Monochoria vaginalis), sedge, umbrella (small-flower umbrella sedge, Cyperus difformis), bulrush, […] bulrush, Scirpus juncoides), and […] (purple […] coccinea), were planted into one 16-cm pot for each rate. Seeds from the U.S. of flatsedge, rice (rice flatsedge, Cyperus iria), sprangletop, Brdd. (bearded sprangletop, Leptochloa fascicularis), one stand of 9 or 10 water seeded rice seedlings (Rice, W.S. Jap, Oryza sativa cv. 'Japonica-[…]' or Rice, W.S. Ind, 'Indica'), and two stands of 3 or 4 seedlings of rice, transplanted (transplanted rice, Oryza sativa cv. 'Japonica-[…]') were planted into one 16-cm pot for each rate. Seeds from the U.S. of barnyardgrass (Echinochloa crus-galli), […] (common […], Alisma plantago-aquatica), and watergrass, late (late watergrass, Echinochloa oryzicola) were planted into one 16-cm pot for each rate. Plantings were sequential so that crop and weed species were at the 2.0 to 2.5-leaf stage at time of treatment. Potted plants were grown in a greenhouse with day/night temperature settings of 30/27° C., and supplemental balanced lighting was provided to maintain a 16-h photoperiod. Test pots were maintained in the greenhouse until test completion. At time of treatment, test pots were flooded to 3 cm above the soil surface, treated by application of test compounds directly to the paddy water, and then maintained at that water depth for the duration of the test. Effects of treatments on rice and weeds were visually evaluated by comparison to untreated controls after 21 d. Plant response ratings, summarized in Table F, are based on a scale of 0 to 100 where 0 is no effect and 100 is complete control. A dash (-) response means no test result.

[1] = 125 g ai/ha, scale 0 to 100 (0 no effect, 100 complete control)

Row | Compound | Plant response rating (foxtail, green; Postemergence, 31 g ai/ha) | Plant response rating (foxtail, green; Postemergence, 62 g ai/ha) | Plant response rating (foxtail, green; Postemergence, 125 g ai/ha) | Plant response rating (foxtail, green; Postemergence, 250 g ai/ha) | Plant response rating, Foxtail, Green (foxtail, green; Preemergence, 62 g ai/ha) | Plant response rating, Foxtail, Green (foxtail, green; Preemergence, 31 g ai/ha) | Plant response rating (foxtail, green; Preemergence, 125 g ai/ha) | Plant response rating (foxtail, green; Preemergence, 250 g ai/ha) | Plant response rating, Sunflower (sunflower; 62 g ai/ha, scale 0 to 100) | Plant response rating, Sunflower (sunflower; [1]) | Plant response rating, Watergrass, Late (watergrass, late; 125 g ai/ha) | Plant response rating, Watergrass, Late (watergrass, late; 250 g ai/ha) | Plant response rating, Watergrass, Late (watergrass, late; 500 g ai/ha) | other results
1 | O=C1NCC(c2ccc(F)c(F)c2)C1C(=O)Nc1ccccc1C(F)(F)F (racemic) [Compound 6] | 0 | 0 | 0 | 20 | 0 | 0 | 0 | 10 |  |  |  |  |  | Plant response rating (foxtail, green; Postemergence, 16 g ai/ha): 0; Plant response rating, Foxtail, Green (foxtail, green; Preemergence, 16 g ai/ha): 0
2 | O=C1NCC(c2ccc(Cl)c(Cl)c2)C1C(=O)Nc1ccccc1F (racemic) [Compound 14] |  |  |  |  |  |  |  |  | 0 | 0 |  |  |  | 
3 | O=C1NCC(c2ccc(F)c(C(F)(F)F)c2)C1C(=O)Nc1cccc(F)c1F (racemic) [Compound 77] |  |  |  |  | 80 | 15 | 70 | 85 |  |  |  |  |  | 
4 | O=C1NCC(c2ccc(F)c(F)c2)C1C(=O)Nc1cccc(F)c1F (racemic) [Compound 101] |  |  |  |  |  |  |  |  |  |  | 75 | 85 | 85 | Plant response rating, Watergrass, Late (watergrass, late; 64 g ai/ha): 65
5 | O=C1NCC(c2ccc(C(F)(F)F)cc2)C1C(=O)Nc1cccc(F)c1F (racemic) [Compound 202] | 60 | 65 | 70 | 70 | 90 | 90 | 98 | 95 |  |  |  |  |  | 
6 | O=C1NCC(c2cccc(C(F)F)c2)C1C(=O)Nc1ccccc1F (racemic) [Compound 210] |  |  |  |  |  |  |  |  |  |  | 55 | 75 | 90 | 
7 | O=C1NCC(c2cc(F)c(F)c(F)c2)C1C(=O)Nc1cccc(F)c1F (centres unmarked) [Compound 48] |  |  |  |  |  |  |  |  | 0 | 0 |  |  |  | Plant response rating, Sunflower (sunflower; 16 g ai/ha, scale 0 to 100): 0
8 | O=C1NCC(c2cc(F)c(F)cc2F)C1C(=O)Nc1cccc(F)c1F (centres unmarked) [Compound 50] | 0 | 0 | 0 |  | 50 | 0 | 40 |  |  |  |  |  |  | Plant response rating (foxtail, green; Postemergence, 16 g ai/ha): 0; Plant response rating, Foxtail, Green (foxtail, green; Preemergence, 16 g ai/ha): 0
9 | O=C1NCC(c2ccc(Cl)c(F)c2)C1C(=O)Nc1cccc(F)c1F (centres unmarked) [Compound 52] | 0 | 0 | 0 | 0 | 0 | 0 | 0 | 60 | 0 | 0 |  |  |  | Plant response rating (foxtail, green; Postemergence, 16 g ai/ha): 0; Plant response rating, Foxtail, Green (foxtail, green; Preemergence, 16 g ai/ha): 0
10 | O=C1NCC(c2ccc(F)c(Cl)c2)C1C(=O)Nc1ccccc1F (centres unmarked) [Compound 60] |  |  |  |  |  |  |  |  | 0 | 0 |  |  |  | 
11 | O=C1NCC(c2cccc(OC(F)(F)F)c2)C1C(=O)Nc1ccccc1F (centres unmarked) [Compound 69] |  |  |  |  |  |  |  |  | 10 | 10 |  |  |  | Sunflower plant response rating (sunflower; 31 g ai/ha, scale 0 to 100, 0 is no effect and 100 is complete control): 10; Plant response rating (scale of 0 to 100), Sunflower (sunflower; 250 g ai/ha): 15
12 | O=C1NCC(c2ccc(C(F)(F)F)cc2)C1C(=O)Nc1cccc(F)c1F (centres unmarked) [Compound 80, N-(2,3-difluorophenyl)-2-oxo-4-[4-(trifluoromethyl)phenyl]-3-pyrrolidinecarboxamide] | 45 | 45 | 65 | 65 | 65 | 20 | 75 | 80 |  |  |  |  |  | 
13 | O=C1NC[C@H](c2cccc(C(F)(F)F)c2)[C@H]1C(=O)Nc1ccccc1F [Compound 204, (3R,4S)—N-(2-fluorophenyl)-2-oxo-4-[3-(trifluoromethyl)phenyl]-3-pyrrolidinecarboxamide] |  |  |  |  | 98 | 90 |  | 100 |  |  | 70 | 98 | 98 | Plant response rating, Foxtail, Green (foxtail, green; Preemergence, 125 g ai/ha): 98
14 | O=C1NC[C@H](c2cccc(C(F)(F)F)c2)[C@H]1C(=O)Nc1cccc(F)c1F [Compound 206] |  |  |  |  | 95 | 85 |  | 98 |  |  | 100 | 100 | 100 | Plant response rating, Foxtail, Green (foxtail, green; Preemergence, 125 g ai/ha): 98; Plant response rating, Watergrass, Late (watergrass, late; 64 g ai/ha): 90
15 | O=C1NCC(c2ccc(C(F)(F)F)cc2)C1C(=O)Nc1ccccc1F (centres unmarked) [Compound 231] | 10 | 65 | 70 | 70 | 80 | 45 |  | 98 |  |  |  |  |  | Plant response rating, Foxtail, Green (foxtail, green; Preemergence, 125 g ai/ha): 95
16 | CN1CC(c2ccc(F)c(F)c2)C(C(=O)Nc2cccc(F)c2F)C1=O (centres unmarked) [Compound 303] |  |  |  |  |  |  |  |  |  |  | 95 | 100 | 100 | Plant response rating, Watergrass, Late (watergrass, late; 62 g ai/ha): 95
